pIC50: −log10 of the molar value.
What follows are compounds tested against SARS-CoV-2 Papain-Like Protease (PLpro) (Severe acute respiratory syndrome coronavirus 2 (2019-nCoV) (SARS-CoV-2), UniProt P0DTD1) (assay: biochemical). Settings: PLpro enzymatic fluorescence assay; class symbols; read-out: PLpro IC50.

Question: With `C=Cc1cc2c(c(C3(NC(=O)c4cc(OC[C@@H]5CCN5C)ccc4C)CC3)c1)CCCN2C` [Compound 796, (S)-2-Methyl-N-(1-(1-methyl-7-vinyl-1,2,3,4-tetrahydroquinolin-5-yl)cyclopropyl)-5-((1-methylazetidin-2-yl)methoxy)benzamide] as the compound, how does the pIC50 read?
Answer: > 7.00

Question: With `Cc1ccc(OC[C@@H]2CCN2)cc1C(=O)NC1(c2cc(-c3cn[nH]c3)cc3ncccc23)CC1` [Compound 642, (S)-N-(1-(7-(1H-Pyrazol-4-yl)quinolin-5-yl)cyclopropyl)-5-(azetidin-2-ylmethoxy)-2-methylbenzamide] as the compound, how does the pIC50 read?
Answer: > 7.00

Question: How did the pIC50 turn out when `C#Cc1cc(C2(NC(=O)c3cc(OC[C@@H]4CCN4C)ccc3C)CC2)c2cccnc2c1` [Compound 620, (S)-N-(1-(7-Ethynylquinolin-5-yl)cyclopropyl)-2-methyl-5-((1-methylazetidin-2-yl)methoxy)benzamide] was run?
Answer: > 7.00

Question: With `C=C(c1cc(C2(NC(=O)c3cc(OC[C@@H]4CCN4C)ccc3C)CC2)c2cccnc2c1)C(F)(F)F` [Compound 650, (S)-2-Methyl-5-((1-methylazetidin-2-yl)methoxy)-N-(1-(7-(3,3,3-trifluoroprop-1-en-2-yl)quinolin-5-yl)cyclopropyl)benzamide] as the compound, how does the pIC50 read?
Answer: > 7.00

Question: How did the pIC50 turn out when `COc1cc(C2(NC(=O)c3cc(O[C@H]4CC[C@@H]5CN(C)CCN5C4)ccc3C)CC2)c2cccnc2c1` [Compound 783] was run?
Answer: > 7.00

Question: With `Cc1ccc(NC2CN(C(=O)OC(C)(C)C)C2)cc1C(=O)NC(C)c1cccc2c1CCCC2` (stereo not shown) [Compound 181] as the compound, how does the pIC50 read?
Answer: < 5.30

Question: How did the pIC50 turn out when `C=Cc1cc(C2(NC(=O)c3cc(OC[C@@H]4CCN4C)c(NS(C)(=O)=O)cc3C)CC2)c2cccnc2c1` [Compound 760, (S)-2-Methyl-5-((1-methylazetidin-2-yl)methoxy)-4-(methylsulfonamido)-N-(1-(7-vinylquinolin-5-yl)cyclopropyl)benzamide] was run?
Answer: > 7.00

Question: How did the pIC50 turn out when `COc1cc(C2(NC(=O)c3cc(OCCNC(C)(C)C)ccc3C)CC2)c2cccnc2c1` [Compound 626, 5-(2-(tert-Butylamino)ethoxy)-N-(1-(7-methoxyquinolin-5-yl)cyclopropyl)-2-methylbenzamide] was run?
Answer: > 7.00

Question: `Cc1ccc(N2C[C@@H](C)N[C@@H](C)C2)cc1C(=O)NC1(c2cccc3ccccc23)CC1` [Compound 506, 5-((3S,5R)-3,5-Dimethylpiperazin-1-yl)-2-methyl-N-(1-(naphthalen-1-yl)cyclopropyl)benzamide] was tested. Which pIC50 did it give?
Answer: > 7.00

Question: How did the pIC50 turn out when `CC#Cc1cc(C2(NC(=O)c3cc(OC[C@@H]4CCN4)ccc3C)CC2)c2cccnc2c1` [Compound 696, (S)-5-(Azetidin-2-ylmethoxy)-2-methyl-N-(1-(7-(prop-1-yn-1-yl)quinolin-5-yl)cyclopropyl)benzamide] was run?
Answer: > 7.00

Question: `CC#Cc1cc(C2(NC(=O)c3cc(OC[C@@H]4CCN4C)ccc3C)CC2)c2ccc(C)nc2c1` [Compound 824, (S)-2-Methyl-N-(1-(2-methyl-7-(prop-1-yn-1-yl)quinolin-5-yl)cyclopropyl)-5-((1-methylazetidin-2-yl)methoxy)benzamide] was tested. Which pIC50 did it give?
Answer: > 7.00

Question: How did the pIC50 turn out when `COc1cc(C2(NC(=O)c3cc(OC[C@@]45CCCN4C[C@H](F)C5)ccc3C)CC2)c2cccnc2c1` [Compound 596, 5-(((2R,7aS)-2-Fluorohexahydro-1H-pyrrolizin-7a-yl)methoxy)-N-(1-(7-methoxyquinolin-5-yl)cyclopropyl)-2-methylbenzamide] was run?
Answer: > 7.00

Question: How did the pIC50 turn out when `C=Cc1cc(C2(NC(=O)c3cc(OC[C@@H]4CCN4C)ccc3C)CC2)c2ccc(C)nc2c1` [Compound 813, (S)-2-Methyl-N-(1-(2-methyl-7-vinylquinolin-5-yl)cyclopropyl)-5-((1-methylazetidin-2-yl)methoxy)benzamide] was run?
Answer: > 7.00

Question: With `Cc1ccc(OC[C@@H]2CCN2C)cc1C(=O)NC1(c2cc(-c3ccc(F)cc3)cc3ncccc23)CC1` [Compound 678, (S)—N-(1-(7-(4-Fluorophenyl)quinolin-5-yl)cyclopropyl)-2-methyl-5-((1-methylazetidin-2-yl)methoxy)benzamide] as the compound, how does the pIC50 read?
Answer: > 7.00

Same assay, conditions: SARS-CoV-2 PLpro enzymatic fluorescence assay; read-out: PLpro IC50

Question: `Cc1ccc(OC[C@H]2C[C@H](F)CN2C)cc1C(=O)NC1(c2cccc3ccccc23)CC1` (single isomer, unassigned) [Compound 441] was tested. Which pIC50 did it give?
Answer: > 7.00

Question: `CC(c1cccc2ccccc12)N1CCC(C(=O)NCc2cccc(F)c2)C1` (stereo not shown) [Compound 144, N-(3-Fluorobenzyl)-1-(1-(naphthalen-1-yl)ethyl)pyrrolidine-3-carboxamide] was tested. Which pIC50 did it give?
Answer: < 5.30

Question: `Cc1ccc(OC[C@@H]2CCN2C)cc1C(=O)NC1(c2cc(O)nc3cc(F)ccc23)CC1` [Compound 542, (S)-N-(1-(7-Fluoro-2-hydroxyquinolin-4-yl)cyclopropyl)-2-methyl-5-((1-methylazetidin-2-yl)methoxy)benzamide] was tested. Which pIC50 did it give?
Answer: > 7.00

Question: How did the pIC50 turn out when `Cc1cc2cc(CNCc3ccccc3)[nH]c2cc1C(=O)NC1(c2cccc3ccccc23)CC1` [Compound 229, 2-((Benzylamino)methyl)-5-methyl-N-(1-(naphthalen-1-yl)cyclopropyl)-1H-indole-6-carboxamide] was run?
Answer: > 7.00

Question: `Cc1ccc(OC2CNC2)cc1C(=O)NC1(c2cccc3ccccc23)CC1` [Compound 171, 5-(Azetidin-3-yloxy)-2-methyl-N-(1-(naphthalen-1-yl)cyclopropyl)benzamide] was tested. Which pIC50 did it give?
Answer: 6.00 to 7.00

Question: `Cc1cc2c(cc1C(=O)NC1(c3cccc4ccccc34)CC1)NC(=O)C2(C)C` [Compound 243, 3,3,5-Trimethyl-N-(1-(naphthalen-1-yl)cyclopropyl)-2-oxoindoline-6-carboxamide] was tested. Which pIC50 did it give?
Answer: 5.30 to 6.00

Question: How did the pIC50 turn out when `Cc1cc2cc(CNC(=O)OC(C)(C)C)[nH]c2cc1C(=O)NC1(c2cccc3ccccc23)CC1` [Compound 180, tert-Butyl((5-methyl-6-((1-(naphthalen-1-yl)cyclopropyl)carbamoyl)-1H-indol-2-yl)methyl)carbamate] was run?
Answer: 6.00 to 7.00

Question: With `Cc1ccc(OCCN(C)C)cc1C(=O)NC1(c2cccc(-c3cccs3)c2)CC1` [Compound 355, 5-(2-(Dimethylamino)ethoxy)-2-methyl-N-(1-(3-(thiophen-2-yl)phenyl)cyclopropyl)benzamide] as the compound, how does the pIC50 read?
Answer: 6.00 to 7.00

Question: With `Cc1ccc(OCC2CCN2C)cc1C(=O)NC1(c2cccc3ccccc23)COC1` (stereo not shown) [Compound 387, 2-Methyl-5-((1-methylazetidin-2-yl)methoxy)-N-(3-(naphthalen-1-yl)oxetan-3-yl)benzamide] as the compound, how does the pIC50 read?
Answer: > 7.00

Question: With `Cc1cc2c(cc1C(=O)NC1(c3cccc4ccccc34)CC1)NCC2` [Compound 207, 5-Methyl-N-(1-(naphthalen-1-yl)cyclopropyl)indoline-6-carboxamide] as the compound, how does the pIC50 read?
Answer: 6.00 to 7.00

Question: How did the pIC50 turn out when `Cc1cc(C2(NC(=O)c3cc(OCC(C)N)ccc3C)CC2)c2cccnc2c1` (stereo not shown) [Compound 497, 5-(2-Aminopropoxy)-2-methyl-N-(1-(7-methylquinolin-5-yl)cyclopropyl)benzamide] was run?
Answer: > 7.00

Question: How did the pIC50 turn out when `Cc1cc2cc(CN)[nH]c2cc1C(=O)NC1(c2cccc3ccccc23)CC1` [Compound 170, 2-(Aminomethyl)-5-methyl-N-(1-(naphthalen-1-yl)cyclopropyl)-1H-indole-6-carboxamide] was run?
Answer: > 7.00

Question: With `COc1cc(C2(NC(=O)c3cc(OC[C@@H]4CCCN4)ccc3C)CC2)c2ccccc2c1` [Compound 419, (S)-N-(1-(3-Methoxynaphthalen-1-yl)cyclopropyl)-2-methyl-5-(pyrrolidin-2-ylmethoxy)benzamide] as the compound, how does the pIC50 read?
Answer: > 7.00

Question: `Cc1cc2cn(C3CNC3)nc2cc1C(=O)NC1(c2cccc3ccccc23)CC1` [Compound 305, 2-(Azetidin-3-yl)-5-methyl-N-(1-(naphthalen-1-yl)cyclopropyl)-2H-indazole-6-carboxamide] was tested. Which pIC50 did it give?
Answer: 6.00 to 7.00

Source: patent publication US20250025443A1, “COMPOUNDS AND METHODS FOR TREATING CORONA VIRUSES” (CLEAR CREEK BIO, INC., priority 2021, published 2025)
